Assay [1] deals with cerebellar slices explants. In words: Ex vivo cerebellar organotypic explant culture, differentiation and myelination index. In kind it is cell-based, mice. Particulars: 750 nM, three days (7-10 DIV); for differentiation index (CC1+/Sox10+ OLs number): compared to negative controls, FIG. 3B. As for the experimental part:
We prepared cerebellar organotypic cultures from newborn (P0) mice. Cerebellar parasagittal slices (350 μm thick) were cut on a McIlwain tissue chopper and transferred onto 30 mm diameter Millipore culture inserts with […] (Millicell, Millipore). Slices were maintained in incubators at 37° C., under a humidified atmosphere containing 5% CO2 in six-well-plates containing 1 mL of slice culture media. This medium includes basal medium eagle (Invitrogen), 25% complete HBSS, 27 mM D-glucose, 100 U/mL penicillin/streptomycin, 1 mM glutamine (Sigma) and 5% horse serum (New Zealand origin, heat inactivated; Invitrogen). Medium was renewed every 2 days until 7 DIV, reaching the appropriate culture periods to study OPC differentiation and myelination. […] Slices were collected and fixed for 1 h at RT in PBS-4% paraformaldehyde, washed 3 times in PBS, and incubated 20 min at 4° C. in Clark's solution (95% ethanol/5% acetic acid), then washed 3 times in PBS 1×.
For ex-vivo cerebellar slices, slices were incubated 20 min at 4° C. in Clark's solution (95% ethanol/5% acetic acid), then washed 3 times in PBS 1×. Then, sections were incubated for 1 hour in a blocking buffer (0.2% Triton X-100/4% bovine serum albumin/4% donkey serum/PBS). Slices were incubated for 2 hours with the following primary antibodies at RT: Goat anti-Sox10 (1:100, R&D Systems); Rabbit anti-Calbindin (1:1000; Swant); Rat anti-MBP (1:200; Abcam); Mouse anti-CC1 (IgG2b; 1:100, Calbiochem). Then slices were washed 3 times in PBS/0.1% Triton X-100 and incubated in blocking buffer (dark, RT) for 2 hours with appropriate secondary antibodies conjugated with Alexa Fluor 488, 594 and 647 (1:1000; Molecular Probes or Thermo Fisher) and Dapi (1:5000 from working solution at 5 mg/ml; Life Technologies; D1306). Finally, slices were washed 3 times in PBS/0.1% Triton X-100 after incubation and mounted in Fluoromount-G (SouthernBiotech).
Then, we firstly performed a simpler and faster experimental model using cerebellar slices explants to identify the best drugs having pro-oligodendrogenenic and pro-myelinating activities in this ex vivo model, to be used in the in vivo analyses. Indeed, this model allowed us to better assess later aspects of OL maturation, myelination, and cytotoxicity in a richer cellular system, also containing immune cells (microglia/macrophages) that are known to influence oligodendrogenesis and (re) myelination. In this model, the start of myelination takes place after 7 days in culture (FIG. 3A). […] We then analyzed the effect in terms of OL numbers (CC1+/Sox10+ cells) and myelination (MBP labeling on CaBP+ Purkinje cell axons), by immunodetection of all four markers in the same sections. We calculated the differentiation index as the ratio of Sox10+ cells being CC1+, and the myelination index as the ratio CaBP+ axons being MBP+. […] On the one hand, we used the adult focal de/remyelination induced by intracerebral injection of […] (LPC) mimicking de/remyelination of MS, and on the other hand, the neonatal chronic hypoxia model, mimicking PTB hypomyelination.

In assay [2] the test system is primary OPCs purified by magnetic cell sorting (MACS) from neonatal cortices. As to the kind of experiment: Primary OPC cultures purified by MACS, morphological complexity of OLs. In kind it is cell-based, mice. Particulars: OPCs treated for two days; compared to vehicle; FIG. 2B. As for the experimental part:
Brains were collected from PLPGFP and P4 Swiss mice […] and washed 3 times in PBS 1× (Invitrogen) with 1% of penicillin/streptomycin (Sigma). Cortex and corpus callosum were dissected and dissociated using neural tissue dissociation kit (T) (Miltenyi biotec) and with dissociator (gentleMACS Octo Dissociator, Miltenyi Biotec). OPC magnetic cell sorting was performed using anti-PDGFRα-coupled-beads (CD140a-PDGFRα MicroBead Kit, Miltenyi biotec) and MultiMACS Cell24 Separator Plus (Miltenyi biotec). Cells were collected in PBS and amplified for 2 days in a proliferating medium (with growth factors IGF, EGF, FGF, and PDGFα). Then, 40.000 cells were plated in 24 well plates adherent on coverslips, beforehand coated with poly-ornithine (Merck) diluted in 4 volumes of H2O and washed 3 times. Successively, for 2 days of proliferation and differentiation, medium was added with drugs at 250 nM, 500 nM and 750 nM, and their respective vehicles (DMSO, PBS). Cells were fixed in 4% PBS-paraformaldehyde (thermo fisher) for 10 minutes and washed 3 times in PBS-1×.
For coated-coverslip, blocking was performed in a moist chamber for 30 mn at room temperature (RT) in the blocking buffer (0.05% Triton X-100/10% normal goat serum/PBS). Then, coverslip were incubated for 30 mn with the following primary antibodies at RT. Rat anti-PDGFRα (1:250, BD Biosciences); Mouse anti-CNPase (mlgG1, 1:250; Millipore); Rabbit anti-Btub (1:1000; BABCO); Chicken anti-GFAP (1:500, Avelabs), Mouse anti-MBP (mlgG1, 1:150; Abcam); Rabbit anti-Sox10 (1:1000; Proteintech). Following 3 washing in 0.05% Triton X-100/PBS, coverslips were incubated 30 min at RT in dark with appropriate secondary antibodies conjugated with Alexa Fluor 488, 594 and 647 (1:1000; Molecular Probes or Thermo Fisher) and Dapi (1:5000 from working solution at 5 mg/ml; Life Technologies; D1306). Coverslips were washed 3 times in 0.05% Triton X-100/PBS and mounted with Fluoromount-G (SouthernBiotech).
To evaluate cell specific contribution of the drugs directly in OL differentiation and maturation, we used primary OPCs purified by magnetic cell sorting (MACS) from neonatal cortices (P4).

Assay [3] deals with neural progenitor cells (NPCs) obtained from the neonatal SVZ. As to the kind of experiment: Neonatal neural progenitor cell (neurosphere-derived) differentiation cultures, immunodetection of neural lineages. Particulars: for increase in iOLs (Sox10high cells): fold-change between drug treatment and vehicle, FIG. 1G; for neurogenesis (neuronal β-III-tubulin+ cells): 750 nM, compared to vehicle, FIG. 1D. In kind it is cell-based, mice.
Method: NSC medium was prepared using up to 50 ml DMEM/F12 (Gibco), containing 666 μl glucose at 45% (Sigma), 0.5 ml penicillin/streptomycin (Sigma), 250 μl HEPES buffer at 1M (Gibco), 500 μl mL N2 supplement (Gibco), 1 mL B27 supplement (Gibco) and with growth factors Insulin 20 μg/ml (Sigma), EGF at 20 ng/ml (Peprotech), FGF 10 ng/ml (Peprotech). Brains were collected from Swiss mice at P0 and washed 3 times in PBS 1× (Invitrogen) with 1% of penicillin/streptomycin (Sigma). SVZ was dissected, transferred in fresh NSC medium and dissociated with pipette. Cells were amplified in a 25 ml flask (1 million of cells for 5 mL of medium), and maintained in a humidified atmosphere at 37° C. and 5% of CO2. Two-three days after, cells have grown as floating neurospheres and were collected by centrifugation at 500 g for 5 mn, dissociated before adding proliferating NSC medium. After 2 passages, 30.000 cells were plated in 24 well plates adherent on coverslips, beforehand coated with poly-ornithine (Merck) diluted in 4 volumes of H2O and washed 3 times. Drugs were added at different ranges of concentration (250 nM, 500 nM and 750 nM) and their respective vehicles (DMSO, or PBS). Medium (including drugs or vehicle) was changed each 2 days. After 4 days with proliferation factors, a differentiation medium without growth factors was added (with drugs or vehicle) for two days. Cells were washed once in PBS, fixed in 4% PBS-paraformaldehyde (thermofischer) for 10 minutes, and washed 3 times in PBS-1×.
To do so, we first used a culture of mix neural progenitor cells (NPCs) obtained from the neonatal SVZ (postnatal day 1, P1). […] We supplemented the drugs in both the proliferation and differentiation medium to analyze both their effect in neural cell type specification into the different neural lineages, and assess their ability to foster OPC differentiation. […]

The subject of assay [4] is focal demyelination in the corpus callosum of adult mice. As to the kind of experiment: Lysolecithin (LPC) induced focal de/remyelination model in adult mice, oral administration in drinking water. It counts as in vivo. Particulars: 7 dpl, oral daily. As for the experimental part: We weighted and anesthetized 4 months old RjOrl: SWISS mice (Janvier) with isoflurane (induced at 3%, and maintained at 1.2-1.6%). We induced focal demyelinating lesions by injecting 0.5 μl of a solution of 1% lysolecithin (LPC, Sigma in 0.9% NaCl solution) into the corpus callosum. To do so, a glass-capillary connected to a 10 μl Hamilton syringe was fixed and oriented through stereotaxic apparatus (coordinates: 1 mm lateral, 1.3 mm rostral to Bregma, 1.7 mm deep to brain surface). Animals were left to recover for a few hours in a warm chamber. […] Mice was perfused at 2% cold paraformaldehyde (thermos fisher) at 7 DPI.
For in-vivo cryosections (14-μm thick) of lesions, immunohistochemistry was performed after 30 mn drying at RT in a moist chamber. For myelin staining, ethanol treatment (100%) was performed for 10 mn at RT. Briefly, sections were permeabilized and blocked in a blocking buffer for 1 h (0.05% Triton X-100/10% normal goat serum/PBS). Then, cryosections were incubated overnight with the following primary antibodies at 4° C.: Mouse anti-APC (CC1 IgG2B; 1:100, calbiochem); Rabbit anti-Olig2 (1:500; Millipore); Mouse anti-Olig1 (IgG1; 1:500; NeuroMab); Rat anti-CD68 (1:500, AbD SEROTEC/BioRad); Rabbit anti-IBA1 (1:500, Wako Fujifilm); Mouse anti-MOOG (mlgG1, 1:20; Hybridoma). Then sections were washed 3 times in 0.05% Triton X-100/PBS and incubated 1 hour at RT with appropriate secondary antibodies conjugated with Alexa Fluor 488, 594 and 647 (1:1000; Molecular Probes or Thermo Fisher) and Dapi (1:5000 from working solution at 5 mg/ml; Life Technologies; D1306). Sections were washed 3 times in 0.05% Triton X-100/PBS and mounted with Fluoromount-G (SouthernBiotech).
We analyzed the lesions at 7 days post-lesion (7 dpl), when newly formed OLs have started to remyelinate the lesion in this model. The lesion area was identified by immunodetection of the high cellular density with DAPI staining, reduction of myelin with myelin oligodendrocyte glycoprotein (MOG), and abundance of microglia/macrophages with Iba1 and Cd68. We determined the effect of the drugs to promote oligodendrogenesis at the lesion site by combinatory immunodetection of Olig2, CC1 and Olig1, allowing to distinguish OPCs (Olig2^high/CC1^−/Olig1^nuclear-cyto cells) and three stages in OL differentiation: iOL1 (Olig2^high/CC1^high/Olig1^− cells), iOL2 (Olig2^high/CC1^high/Olig1^high-cyto cells), and mOL (Olig2^low/CC1^low/Olig1^low cells). […] Given the increase in OL differentiation by the drugs administration, without diminishing the pool of OPCs in the lesion area, we assessed for the proliferative status of OPCs, using Mcm2 and Ki67 proliferative markers, finding that both drugs promote a ˜2-fold increase in the density of proliferative OPCs (FIG. 4D) and in the proportion of proliferative OPCs (FIG. 4E).
To investigate the possible anti-inflammatory and pro-regenerative activity of these drugs, we performed staining for microglia/macrophages (Iba1+ cells), their active phagocytic status (Cd68+ cells), together with myelin (MOG) and cell density (DAPI) to identify the lesion area.

Regarding `Cc1cc2c(cc1S(N)(=O)=O)S(=O)(=O)CCC2` [Sm1, Meticrane], the “differentiation index (CC1+/Sox10+ OLs number)” value in assay [1] is reported as “increased differentiation index”. Moreover, the “morphological complexity of OLs (PLP+ cells)” value (“morphological complexity” for short) in assay [2] is reported as “strongly increased”.

In the case of `OC(CCN1CCCCC1)(c1ccccc1)C1CCCCC1` (stereo not shown) [Sm10, Trihexyphenidyl], the “increase in iOLs (Sox10high cells)” value in assay [3] is recorded as “increased tendency not reaching statistical significance”.

With `S=C(NC1CCCCC1)N1CCC(c2cnc[nH]2)CC1` [Sm9, Thioperamide], the “neurogenesis (neuronal β-III-tubulin+ cells)” value in assay [3] was “positive effect”.

On to `C[C@@H]1C(=O)O[C@H]2C[C@@]34[C@H]5C[C@@H](C(C)(C)C)[C@]36[C@@H](OC(=O)[C@@H]6O)O[C@@]4(C(=O)O5)[C@]21O` [Sm6, Ginkgolide A], for which the “morphological complexity” value in assay [2] is on record as “strongly increased”.

On to `Nc1nc(=O)c2c([nH]1)NCC(CNc1ccc(C(=O)N[C@@H](CCC(=O)O)C(=O)O)cc1)N2C=O.[Ca+2]` (stereo partly shown) [Sm11, Calcium folinate], for which the “neurogenesis (neuronal β-III-tubulin+ cells)” value in assay [3] is “positive effect”. The “number of oligodendroglial cells in the remyelinating area (Olig2+ cells)” value in assay [4] (sm5 at 5 μg per g, control 942.5±265.7, FIG. 4B) is on record as 1558±331 Olig2+ cells per mm^2. In assay [4] (FIG. 4C), the “density of OPCs (Olig2high/CC1−/Olig1nuclear-cyto cells) in the lesion area” value was “did not change”. Further, the “pro-regenerative microglia (Arg1+ cells)” value in assay [4] (FIG. 4I) is “corresponding increase”. The “actively phagocytic microglia/macrophages (Cd68+ cells)” value in assay [4] (control 22.45%, FIG. 4H) is 12.13%±5.14. The “surface occupied by Iba1+ microglia/macrophages in the lesion area” value in assay [4] (control 33.64%, FIG. 4G) is listed as 27.28%±4.16. For the same compound, the “increase of each stage of OL differentiation (iOL1, iOL2 & mOL)” value in assay [4] (versus control) was ~2 fold. In assay [4] (versus control, FIG. 4D), the “increase in the density of proliferative OPCs (Mcm2, Ki67 markers)” value is recorded as ~2 fold. The “increase in the proportion of proliferative OPCs” value in assay [4] (versus control, FIG. 4E) is given as ~2 fold. Besides, in assay [2], the “morphological complexity” value was “strongly increased”.

As for `CC(N)CCCC(C)(C)O` (stereo not shown) [Sm2, Heptaminol], the “differentiation index (CC1+/Sox10+ OLs number)” value in assay [1] is “increased differentiation index”. In addition, in assay [1] (compared to vehicle, FIG. 3C), the “myelination process (MBP+/CaBP+), myelination index” value is recorded as “robust increase”. Also, the “morphological complexity” value in assay [2] is listed as “strongly increased”.

As for `C#C[C@]1(O)CC[C@H]2[C@@H]3CCC4=CC(=O)CC[C@@H]4[C@H]3CC[C@@]21CC` [Sm7, Levonorgestrel], the “increase in iOLs (Sox10high cells)” value in assay [3] was “increased tendency not reaching statistical significance”.
